Reference: patent US12310940B2, “Cell-permeable succinate compounds” (ABLIVA AB, priority 2014, dated 2025)

Experiments:
[1] = system: intact PBMCs; assay: Lactate release of intact PBMCs exposed to metformin; type: cell-based, human; conditions: 10 mM metformin, data not shown
[2] = system: intact human platelets
Procedure: Real-time respirometric measurements were performed using high-resolution oxygraphs (Oxygraph-2k, Oroboros Instruments, Innsbruck, Austria). The experimental conditions during the measurements were the following: 37° C., 2 mL active chamber volume and 750 rpm stirrer speed. […] For data recording, DatLab software version 4 and 5 were used (Oroboros Instruments, Innsbruck, Austria). Settings, daily calibration and instrumental background corrections were conducted according to the manufacturer's instructions. […] All measurements were performed at a platelet concentration of 200×10^6 cells per mL or a PBMC concentration of 5×10^6 cells per mL.
Venous blood from 18 healthy adults (11 males and 7 females) was drawn in K2EDTA tubes (BD Vacutainer® Brand Tube with dipotassium EDTA, BD, Plymouth, UK) according to clinical standard procedure after written informed consent was acquired. For platelet isolation the whole blood was centrifuged (Multifuge 1 S—R Heraeus, Thermo Fisher Scientifics, Waltham, USA) at 500 g at room temperature (RT) for 10 min. Platelet-rich plasma was collected to 15 mL falcon tubes and centrifuged at 4600 g at RT for 8 min. The resulting pellet was resuspended in 1-2 mL of the donor's own plasma. […] The blood remaining after isolation of platelets was washed with an equal volume of physiological saline and layered over 3 mL of Lymphoprep™. After centrifugation at 800 g at RT (room temperature) for 30 min the PBMC layer was collected and washed with physiological saline. Following a centrifugation at 250 g at RT for 10 min the pellet of PBMCs was resuspended in two parts of physiological saline and one part of the donor's own plasma. Cell count for both PBMCs and platelets were performed using an automated hemocytometer (Swelab Alfa, Boule Medical AB, Stockholm, Sweden).
Routine respiration was followed for 60 min at 37° C. before the ATP-synthase inhibitor oligomycin (1 μg mL^−1) was added to assess LEAK respiration. Maximal uncoupled respiratory electron transport system capacity supported by endogenous substrates (ETS) was reached by titration of FCCP.

[3] = system: permeabilized human PBMCs; assay: cells; conditions: PBMC, read-out: IC50 for inhibition of OXPHOSCI
Procedure: Real-time respirometric measurements were performed using high-resolution oxygraphs (Oxygraph-2k, Oroboros Instruments, Innsbruck, Austria). The experimental conditions during the measurements were the following: 37° C., 2 mL active chamber volume and 750 rpm stirrer speed. […] For data recording, DatLab software version 4 and 5 were used (Oroboros Instruments, Innsbruck, Austria). Settings, daily calibration and instrumental background corrections were conducted according to the manufacturer's instructions. […] Standard non-linear curve fitting was applied to calculate half maximal inhibitory concentration (IC50) values. […] Maximal uncoupled respiratory electron transport system capacity supported by convergent input through complex I and […] ) was evaluated by subsequent titration with the protonophore carbonyl-cyanide p-(trifluoromethoxy) phenylhydrazone (FCCP). […] The complex III inhibitor antimycin (1 μg mL^-1) was then given to reveal residual oxygen consumption (ROX). […] Complex IV activity was calculated by subtracting the sodium azide value from the TMPD value. With exception of complex IV activity, all respiratory states were measured at steady-state and corrected for ROX. Complex IV activity was measured after ROX determination and not at steady-state.

[4] = Al-Abri et al., 2013; cited from earlier work

CN(C)C(=N)N=C(N)N [metformin]
lactate release of intact PBMCs [1]: increased lactate release | LEAK respiration in intact cells ([2]; data not shown): not significantly changed | toxic concentration seen in the present study ([2]; human blood cells): 1 mM | reversibility of complex I inhibition upon removal of the drug ([2]; washing and permeabilizing the cells): did not seem to be reversible | IC50 [3]: 450 µM | serum level in a case report of involuntary intoxication, prior to hemodialysis [4]: over 2 mM
